Experimental data published in US12064418B2, “Conjoint therapies for immunomodulation” (Aurigene Oncology Limited, priority 2017, dated 2024).

Experiments:
CT-26 tumor = assay: Tumor growth inhibition in the CT-26 syngeneic mouse tumor model; format: in vivo, mouse (female Balb/c); settings: CT-26 tumor bearing Balb/c mice, vs Vehicle (H2O)
From the text: The purpose of this study is to determine the effect of Cmd 1 and Cmd 32 on growth inhibition (efficacy) in CT-26 tumor bearing mice when administered once daily by oral gavage as single agents or in combination. Cmd 1 and Cmd 32 are small molecule immune modulating agents for treatment of cancer.
Female Balb/c Mice from Charles River Laboratories −20-25 grams; 9-10 weeks old; Strain code: 028.
CT-26 cells were expanded in T225 tissue culture treated flasks in RPMI-1640 medium supplemented with 10% FBS ([…]) and cultured at 37° C. (5% CO2) in a humidified cell culture incubator. Cells were passaged every 3-4 days by detachment with 1× Trypsin/EDTA. Cells were re-plated on 5 flasks in complete RPMI1640 medium.
On the day of implantation, the cells were collected from flasks washed with phosphate buffer solution and detached with Trypsin/EDTA and washed once in phosphate buffer solution with no additives. Cells were resuspended in serum free DMEM at a final concentration of 1×10^6 cells/mL and kept on ice until administered to mice. The cells were kept on ice for no more than 1 hour before administration to the mice. […]
Animals were monitored until tumors were palpable and were then measured until tumor volume reached 100-200 mm^3. […] Tumor cells were counted on a MACSQuant Analyzer with propidium iodide (PI) for live/dead discrimination. […]

MC38 tumor = assay: Tumor growth inhibition in the MC38 syngenic model; format: in vivo, mouse (female C57BL/6); settings: MC38 SC model, oral once a day
Method: Female C57BL/6 mice bred in-house were used in this efficacy study in the MC38 model. Animals were 6-8 weeks-old and weighed between 13 and 21 g. Animals were marked individually with tail marks and kept in cages that were identified by a cage card showing the study code, date of experimentation, sex and number of animals. During the experiment, the animals were weighed daily.
Tumor cells were cultured according to the procedure explained in the literature (U.S. Pat. No. 9,333,256; A. Filatenkov et al., J. Immunol., 2009. 183(11): 7196-7203). Tumor cells were ensured Mycoplasma free by performing Mycoplasma detection with MYCOALERT®Mycoplasma Detection Kit (Lonza) in accordance with manufacturer instructions. MYCOALERT® Assay is a selective biochemical test that exploits the activity of mycoplasmal enzymes. Viable Mycoplasma would be lysed and enzymes react with MYCOALERT® substrate, catalyzing the conversion of ADP to ATP. […]
MC38 cells were cultured according to the information in published literature (A. Filatenkov et al., J. Immunol., 2009. 183(11): 7196-7203; S. F. Ngiow et al., Cancer Res., 2011. 71(10): 3540-3551). […] Tumor volumes were measured 3 times a week, body weight and clinical signs were monitored every day. […]

[1] = tested on: intratumoral T cell populations; assay: Cell-surface marker assays of intratumoral T cell populations in the CT-26 model; format: in vivo, mouse (female Balb/c); settings: Cmd 32 50 mg/kg, CT-26 tumors
Method: Animals were monitored until tumors were palpable and were then measured until tumor volume reached 100-200 mm^3. They were then randomized into groups using LabCat software and dosing started the following day. Blood was collected in EDTA tubes and kept on ice. Tumor were collected in 15 mL tubes with RPMI-1640 w/10% FBS on ice. Tumors proceeded to the Miltenyi Biotec mouse tumor dissociation kit. Tumor cells were counted on a MACSQuant Analyzer with propidium iodide (PI) for live/dead discrimination. Percent tumor growth inhibition on Day 20 is tabulated below (Table 11). Tumor volume of individual animals on day 20 and the tumor growth over the course of the study are represented in FIG. 1A and FIG. 1B respectively. Cell-surface marker assays were used to identify intratumoral T cell populations and calculate CD8+ (CTL; cytotoxic T-cell): Treg (regulatory T cell) ratio.

[2] = Mortality, body weight and clinical signs in the MC38 study; format: in vivo; settings: Cmd 32 10 mg/kg group, one animal, no gross pathology, not reliably attributed to treatment
Method: Mortality/morbidity of animals, body weight loss and clinical symptoms were monitored. During study period all moribund animals were sacrificed and animals losing >20% of their body weight were also sacrificed. Body weights were recorded every day and clinical signs of toxicity were recorded once a day. Survival was recorded every day. A 15-20% loss of the body weight and/or animal death was considered as the criteria for toxicity. Behavioural, nesting and gross observations for clinical signs were made at least once every day during the course of the study.
At the end of the study (30 min after the last dose), animals were examined externally for possible abnormalities, weighed and sacrificed by CO2 asphyxiation.

SMILES	% TGI (Day 20), percent tumor growth inhibition (CT-26 tumor; Cmd 1 100 mg/kg QD PO)	Percent tumor growth inhibition (TGI) (MC38 tumor; Cmd 1 10 mg/kg, Cmd 32 0 mg/kg)	Tumor granzyme-B+/PD-1+/Tim-3+ T cells (percent of CD8) ([1]; FIG. 2B)	Tumor granzyme-B+/PD-1+/Tim-3- T cells (percent of CD8) ([1]; FIG. 2C)	% TGI (Day 20), percent tumor growth inhibition (CT-26 tumor; Cmd 32 50 mg/kg QD PO)	Percent tumor growth inhibition (TGI) (MC38 tumor; Cmd 32 10 mg/kg, Cmd 1 0 mg/kg)	Mortality [2]
CC(O)[C@H](NC(=O)N[C@@H](CC(N)=O)c1nc([C@@H](N)CO)no1)C(=O)O (stereo in doubt) [Cmd 1]	23%	25%					
CC(O)[C@H](NC(=O)N[C@@H](CCC(=O)O)c1nc([C@@H](N)CO)no1)C(=O)O (stereo in doubt) [Cmd 32]			increase	concomitant decrease	24%	10%	found dead
